Some results are limits rather than exact numbers.

Results on ten compounds are retold here after patent US4427671A, “Steroids esterified in position 17 and thioesterified in position 21, a process for preparing them and their use as medicaments” (priority 1981, dated 1984).

Common to all, as to assay type: in vivo, male Sprague-Dawley I.O.P.S. rats
One data set has as its system granuloma. Briefly: Local anti-inflammatory activity: inhibition of granuloma formation around implanted cotton wool pellet. As to conditions: Table 1; for R 1 (relative local anti-inflammatory activity compared with betamethasone 17,21-dipropionate): D.P.B. = 1, calculated from ED50; for ED50 (local anti-inflammatory activity, 50% inhibition in granuloma weight): rat, cotton pellet granuloma, six days after implantation. How it is done: A. Winter and C. C. Porter (J. Am. Pharm. Ass. 1957, 46, 9, pages 515-519).
(§1) The principle of the test consists in implanting a pellet of cotton wool in the dorsal subcutaneous tissue of the animal. The corticoids to be studied are added to the pellet so that the following tests can be carried out:
(1) Determination of the local anti-inflammatory activity
The presence of products within the pellet may inhibit or prevent the formation of a granuloma.
(§2) The animals are divided into random homogeneous groups of 10 male Sprague-Dawley I.O.P.S. rats with a body weight of between 100 and 120 grams.
(§3) The pellets to be implanted weigh from 35 to 40 mg and are prepared from balls of dental cotton wool. Before being inserted, each pellet is weighed and impregnated with the precise quantity of the product which is to be studied, dissolved in 0.2 ml of chloroform. The chloroform is eliminated by evaporation over a period of 24 hours at ambient temperature.
(§4) Before implantation, each pellet is impregnated with a solution of antibiotics:
Streptomycin 0.1 gram/ml.
(§5) The animals are anaesthetised with ether, and then two pellets are implanted in each animal in the dorsal subcutaneous tissue, on each side of the median line:
(§6) on the left, the pellet containing the product to be tested (treated animal) or the carrier only (control animal);
(§7) on the right, the pellet containing the carrier only.
(§8) The animals are given normal food and are sacrificed six days after the pellets have been implanted.
(1) Local anti-inflammatory activity
The pellets surrounded by granulomatous tissue are carefully removed and weighed, and then dried until a constant weight is obtained.
The relative activity of the test products compared with betamethasone 17,21-dipropionate is calculated according to the following equation: [formula]

Data set [1] can be described thus: Systemic activity after local administration: effect on weight gain. How it is done:
(§9) The pharmacological activity of the products described in the invention was tested in the rat using a technique similar to that described by C. A. Winter and C. C. Porter (J. Am. Pharm. Ass. 1957, 46, 9, pages 515-519).
as §1
(§10) (2) Determination of the systemic activity of the products after local administration
(§11) Local application of the corticoids may result, inter alia, in:
(b) Disruption of the protein metabolism which causes tissue fusion, resulting in an inhibition of the weight increase in animals.
as §2, §3, §4, §5, §6, §7, §8
(b) Effect on weight gain
The weight gain over six days is determined on the animals before they are sacrificed.
The activity of the products was expressed as the percentage inhibition in the weight gain of the treated animals compared with the weight gain in the control animals.
The ED 30 which corresponds to a 30% inhibition in the weight gain was determined.

A further data set has as its system thymus. Briefly: Systemic activity after local administration: effect on the weight of the thymus. On the procedure: as §9, §1, §10, §11
(a) a reduction in the defence systems of the organism, the most notable sign of which is a reduction in the weight of the animals' thymuses.
as §2, §3, §4, §5, §6, §7, §8
(2) Determination of the systemic effect
The thymuses are taken from the same animals and weighed. Using the same type of calculation, an ED 50 is determined, which corresponds to the dosage of product resulting in a 50% decrease in weight of the thymuses, compared with the control animals.

Where [2] appears, read: D.P.B. = 1, calculated from ED30, Table 3.
Setting [3] is: rat, local application, weight gain over six days, Table 3.
Setting [4] is: D.P.B. = 1, calculated from ED50, Table 2.
[5] abbreviates: rat, local application, six days, Table 2.

Regarding `CCCCC(=O)O[C@]1(C(=O)CSC(=O)C(C)(C)C)CC[C@H]2[C@@H]3CCC4=CC(=O)CC[C@]4(C)[C@H]3[C@@H](O)C[C@@]21C` [Ex. 2, 11β-hydroxy-pregn-4-ene-3,20-dione (or hydrocortisone) 17-valerate, 21-thiopivalate], in the data set with granuloma, the “R 1 (relative local anti-inflammatory activity compared with betamethasone 17,21-dipropionate)” value was 0.75 and the “ED50 (local anti-inflammatory activity, 50% inhibition in granuloma weight)” value came to 2.140 mg/pellet. Besides, in data set [1] (rat, in vivo, 8640 min), the “ED30 (30% inhibition in the weight gain)” value is greater than 3.4 mg/pellet and the “R 3 (relative activity on weight gain compared with D.P.B.)” value is reported as less than 0.24. In addition, in the data set on thymus (rat, in vivo), the “ED50 (50% decrease in weight of the thymuses)” value is listed as “zero to 3.4”. In addition, the “R 2 (relative effect on thymus weight compared with D.P.B.)” value with thymus (rat, in vivo, 8640 min) was less than 0.25.

Turning to `CCC(=O)OCC(=O)C1(OC(=O)CC)C(C)CC2C3CCC4=CC(=O)C=CC4(C)C3(F)C(O)CC21C` (stereo not drawn) [D.P.B., betamethasone 17,21-dipropionate, reference compound], in the data set with granuloma, the “R 1 (relative local anti-inflammatory activity compared with betamethasone 17,21-dipropionate)” value was 1 and the “ED50 (local anti-inflammatory activity, 50% inhibition in granuloma weight)” value is 1.610 mg/pellet. Moreover, the “R 3 (relative activity on weight gain compared with D.P.B.)” value in data set [1] (setting [2]) is listed as 1. Moreover, in data set [1] (setting [3]), the “ED30 (30% inhibition in the weight gain)” value is recorded as greater than 0.8 mg/pellet. Also, the “R 2 (relative effect on thymus weight compared with D.P.B.)” value in the data set with thymus (setting [4]) is listed as 1. In addition, the “ED50 (50% decrease in weight of the thymuses)” value in the data set on thymus (setting [5]) is reported as 0,86 mg/pellet.

With `CC(=O)SCC(=O)[C@@]1(OC(=O)c2ccccc2)CC[C@H]2[C@@H]3C[C@H](C)C4=CC(=O)C=C[C@]4(C)[C@H]3[C@@H](O)C[C@@]21C` [Ex. 4, 11β-hydroxy-6α-methyl-pregna-1,4-diene-3,20-dione (or 6β-methylprednisolone) 17-benzoate, 21-thioacetate], in the data set with granuloma, the “R 1 (relative local anti-inflammatory activity compared with betamethasone 17,21-dipropionate)” value was 29 and the “ED50 (local anti-inflammatory activity, 50% inhibition in granuloma weight)” value is given as 0.056 mg/pellet. Also, in data set [1] (rat, in vivo, 8640 min), the “ED30 (30% inhibition in the weight gain)” value was greater than 5 mg/pellet and the “R 3 (relative activity on weight gain compared with D.P.B.)” value is reported as less than 0.16. Moreover, in the data set on thymus (rat, in vivo, 8640 min), the “ED50 (50% decrease in weight of the thymuses)” value is on record as greater than 5 mg/pellet and the “R 2 (relative effect on thymus weight compared with D.P.B.)” value was less than 0.17.

Consider `CCC(=O)SCC(=O)C1(OC(C)=O)C(C)CC2C3CCC4=CC(=O)C=CC4(C)C3(F)C(O)CC21C` (stereo not drawn) [Ex. 9, 9α-fluoro-11β-hydroxy-16β-methyl-pregna-diene-3,20-dione (or betamethasone) 17-acetate, 21-thiopropionate], for which, in the data set on granuloma, the “R 1 (relative local anti-inflammatory activity compared with betamethasone 17,21-dipropionate)” value is reported as 16 and the “ED50 (local anti-inflammatory activity, 50% inhibition in granuloma weight)” value is listed as 0.100 mg/pellet. Moreover, in data set [1] (rat, in vivo, 8640 min), the “ED30 (30% inhibition in the weight gain)” value is recorded as 1 mg/pellet and the “R 3 (relative activity on weight gain compared with D.P.B.)” value is recorded as 0.8. In addition, in the data set with thymus (rat, in vivo, 8640 min), the “ED50 (50% decrease in weight of the thymuses)” value is reported as 1.70 mg/pellet and the “R 2 (relative effect on thymus weight compared with D.P.B.)” value is 0.51.

With `CC(=O)OC1(C(=O)CSC(C)=O)C(C)CC2C3CCC4=CC(=O)C=CC4(C)C3(F)C(O)CC21C` (stereo not drawn) [Ex. 8, 9α-fluoro-11β-hydroxy-16β-methyl-pregna-1,4-diene-3,20-dione (or betamethasone) 17-acetate, 21-thioacetate], in the data set with granuloma, the “R 1 (relative local anti-inflammatory activity compared with betamethasone 17,21-dipropionate)” value is 22 and the “ED50 (local anti-inflammatory activity, 50% inhibition in granuloma weight)” value was 0.072 mg/pellet. In data set [1] (rat, in vivo, 8640 min), the “ED30 (30% inhibition in the weight gain)” value is listed as 1 mg/pellet and the “R 3 (relative activity on weight gain compared with D.P.B.)” value is reported as 0.8. Besides, in the data set on thymus (rat, in vivo, 8640 min), the “ED50 (50% decrease in weight of the thymuses)” value is 1.20 mg/pellet and the “R 2 (relative effect on thymus weight compared with D.P.B.)” value was 0.71.

Regarding `CCC(=O)O[C@]1(C(=O)CSC(=O)CC)CC[C@H]2[C@@H]3C[C@H](C)C4=CC(=O)C=C[C@]4(C)[C@H]3[C@@H](O)C[C@@]21C` [Ex. 5, 11β-hydroxy-6α-methyl-pregna-1,4-diene-3,20-dione (or 6α-methylprednisolone) 17-propionate, 21-thiopropionate], in the data set on granuloma, the “R 1 (relative local anti-inflammatory activity compared with betamethasone 17,21-dipropionate)” value was 7.7 and the “ED50 (local anti-inflammatory activity, 50% inhibition in granuloma weight)” value is on record as 0.210 mg/pellet. In data set [1] (rat, in vivo, 8640 min), the “ED30 (30% inhibition in the weight gain)” value is greater than 1 mg/pellet and the “R 3 (relative activity on weight gain compared with D.P.B.)” value is reported as less than 0.8. Also, in the data set with thymus (rat, in vivo, 8640 min), the “ED50 (50% decrease in weight of the thymuses)” value is reported as greater than 1 mg/pellet and the “R 2 (relative effect on thymus weight compared with D.P.B.)” value was less than 0.86.

For the compound `CCCC(=O)O[C@]1(C(=O)CSC(C)=O)CC[C@H]2[C@@H]3CCC4=CC(=O)C=C[C@]4(C)[C@H]3C(=O)C[C@@]21C` [Ex. 3, Pregna-1,4-diene-3,11,20-trione (or prednisone) 17-butyrate, 21-thioacetate], in the data set with granuloma, the “R 1 (relative local anti-inflammatory activity compared with betamethasone 17,21-dipropionate)” value is on record as 2.7 and the “ED50 (local anti-inflammatory activity, 50% inhibition in granuloma weight)” value is listed as 0.600 mg/pellet. In addition, in data set [1] (rat, in vivo, 8640 min), the “ED30 (30% inhibition in the weight gain)” value is listed as greater than 5 mg/pellet and the “R 3 (relative activity on weight gain compared with D.P.B.)” value is reported as less than 0.16. Besides, in the data set with thymus (rat, in vivo, 8640 min), the “ED50 (50% decrease in weight of the thymuses)” value is given as greater than 5 mg/pellet and the “R 2 (relative effect on thymus weight compared with D.P.B.)” value is less than 0.17.

In the case of `CCCCC(=O)O[C@]1(C(=O)CSC(=O)CCCC)CC[C@H]2[C@@H]3CCC4=CC(=O)CC[C@]4(C)[C@H]3[C@@H](O)C[C@@]21C` [Ex. 1, 11β-hydroxy-pregn-4-ene-3,20-dione (or hydrocortisone) 17-valerate, 21-thiovalerate], in the data set on granuloma, the “R 1 (relative local anti-inflammatory activity compared with betamethasone 17,21-dipropionate)” value is given as greater than 8 and the “ED50 (local anti-inflammatory activity, 50% inhibition in granuloma weight)” value is reported as less than 0.200 mg/pellet. In data set [1] (rat, in vivo, 8640 min), the “ED30 (30% inhibition in the weight gain)” value was greater than 3.2 mg/pellet and the “R 3 (relative activity on weight gain compared with D.P.B.)” value was less than 0.25. For the same compound, the “ED50 (50% decrease in weight of the thymuses)” value in the data set on thymus (rat, in vivo) is recorded as “zero to 3.2”. Besides, the “R 2 (relative effect on thymus weight compared with D.P.B.)” value with thymus (rat, in vivo, 8640 min) was less than 0.27.

For the compound `CCCCC(=O)SCC(=O)C1(OC(=O)CC)C(C)CC2C3CCC4=CC(=O)C=CC4(C)C3(Cl)C(O)CC21C` (stereo not drawn) [Ex. 16, 9α-chloro-11β-hydroxy-16β-methyl-pregna-1,4-diene-3,20-dione (or beclomethasone) 17-propionate, 21-thiovalerate], in the data set with granuloma, the “R 1 (relative local anti-inflammatory activity compared with betamethasone 17,21-dipropionate)” value is listed as 13.4 and the “ED50 (local anti-inflammatory activity, 50% inhibition in granuloma weight)” value came out at 0.120 mg/pellet. Moreover, in data set [1] (rat, in vivo, 8640 min), the “ED30 (30% inhibition in the weight gain)” value is reported as greater than 1.0 mg/pellet and the “R 3 (relative activity on weight gain compared with D.P.B.)” value is given as less than 0.8. In the data set with thymus (rat, in vivo, 8640 min), the “ED50 (50% decrease in weight of the thymuses)” value was greater than 1 mg/pellet and the “R 2 (relative effect on thymus weight compared with D.P.B.)” value was less than 0.86.

On to `CCC(=O)OCC(=O)[C@@]1(OC(=O)CC)[C@@H](C)C[C@H]2[C@@H]3CCC4=CC(=O)C=C[C@]4(C)[C@@]3(Cl)[C@@H](O)C[C@@]21C` [Beclomethasone dipropionate, beclomethasone 17,21-dipropionate, reference compound], for which, in the data set with granuloma, the “R 1 (relative local anti-inflammatory activity compared with betamethasone 17,21-dipropionate)” value is less than 0.2 and the “ED50 (local anti-inflammatory activity, 50% inhibition in granuloma weight)” value was greater than 5 mg/pellet. Also, in data set [1] (setting [2]), the “R 3 (relative activity on weight gain compared with D.P.B.)” value was 0.16. The “ED30 (30% inhibition in the weight gain)” value in data set [1] (setting [3]) was found to be 5 mg/pellet. For the same compound, the “R 2 (relative effect on thymus weight compared with D.P.B.)” value with thymus (setting [4]) is recorded as 0.27. Further, the “ED50 (50% decrease in weight of the thymuses)” value in the data set with thymus (setting [5]) is reported as 3.1 mg/pellet.
